Paper PMC6691587, “New CXCR1/CXCR2 inhibitors represent an effective treatment for kidney or head and neck cancers sensitive or refractory to reference treatments” (Theranostics, 2019)

These compounds were tested on Molm13 (assay: XTT cell viability assay, Molm13 AML cells). Details: Homo sapiens, MOLM-13, 48 h, SD 10%, mean of three experiments.
Format: cell-based, human
Procedure: (§1) Fifty microliters of sodium 3′-[1-phenylaminocarbonyl)-3,4-tetrazolium]-bis(4-methoxy-6-nitro) benzene sulfonic acid hydrate (XTT) reagent was added to each well. The assay is based on the cleavage of the yellow tetrazolium salt XTT to form an orange formazan dye by metabolically active cells. This bio-reduction occurs in viable cells only and is related to NAD(P)H production through glycolysis. Therefore, the amount of formazan dye measured at 490 nm directly correlated with the number of metabolically active cells reflecting cell proliferation and viability. Each assay was performed in quadruplicate.
With `O=C(Nc1ccc(Cl)cc1)Nc1nc2ccccc2s1` [C23] the IC50 was greater than 25 µM.
With `COc1ccc(NC(=O)Nc2nc3ccccc3s2)cc1` [C24] the IC50 was greater than 25 µM.
`Cc1ccc2nc(NC(=O)Nc3cccc(Cl)c3)sc2c1` [C26] gave an IC50 greater than 25 µM.
`Cc1cccc(NC(=O)Nc2nc3ccc(C)cc3s2)c1` [C27] was tested, and the IC50 was greater than 25 µM.
`CCOc1ccc2nc(NC(=O)Nc3cccc(C)c3)sc2c1` [C31] showed an IC50 greater than 25 µM.
`CCOc1ccc2nc(NC(=O)Nc3ccc(C)cc3)sc2c1` [C32] was tested, and the IC50 was greater than 25 µM.

These compounds were tested on Molm14 (assay: XTT cell viability assay, Molm14 AML cells). Details: Homo sapiens, MOLM-14, 48 h, SD 10%, mean of three experiments.
Format: cell-based, human
Procedure: as §1
`O=C(Nc1ccc(Cl)cc1)Nc1nc2ccccc2s1` [C23] showed an IC50 greater than 25 µM.
`COc1ccc(NC(=O)Nc2nc3ccccc3s2)cc1` [C24] gave an IC50 greater than 25 µM.
Work on `Cc1ccc2nc(NC(=O)Nc3cccc(Cl)c3)sc2c1` [C26] yielded an IC50 greater than 25 µM.
`Cc1cccc(NC(=O)Nc2nc3ccc(C)cc3s2)c1` [C27] was tested, and the IC50 was greater than 25 µM.
Work on `CCOc1ccc2nc(NC(=O)Nc3cccc(C)c3)sc2c1` [C31] yielded an IC50 of 25 µM.
For `CCOc1ccc2nc(NC(=O)Nc3ccc(C)cc3)sc2c1` [C32], the IC50 was greater than 25 µM.

Each compound was assayed on RCC4 (assay: XTT cell viability assay, RCC4 RCC cells). Details: Homo sapiens, RCC4, 48 h, SD 10%, mean of three experiments, read-out: IC50 R4 (Kidney RCC).
Format: cell-based, human
Procedure: as §1
Compound `O=C(Nc1ccc(Cl)cc1)Nc1nc2ccccc2s1` [C23] has an IC50 of 20 µM.
`COc1ccc(NC(=O)Nc2nc3ccccc3s2)cc1` [C24] was tested, and the IC50 was 15 µM.
`Cc1ccc2nc(NC(=O)Nc3cccc(Cl)c3)sc2c1` [C26] was tested, and the IC50 was greater than 25 µM.
For `Cc1cccc(NC(=O)Nc2nc3ccc(C)cc3s2)c1` [C27], the IC50 was greater than 25 µM.
For `CCOc1ccc2nc(NC(=O)Nc3cccc(C)c3)sc2c1` [C31], the IC50 was greater than 25 µM.
Compound `CCOc1ccc2nc(NC(=O)Nc3ccc(C)cc3)sc2c1` [C32] has an IC50 greater than 25 µM.

The compounds below were run on CAL33 (assay: XTT cell viability assay, CAL33 HNSCC cells). Details: Homo sapiens, CAL-33; XTT assay, 48 h; SD 10%; mean of three experiments; read-out: IC50 33 (HNSCC).
Format: cell-based, human
Procedure: as §1
Work on `O=C(Nc1ccc(Cl)cc1)Nc1nc2ccccc2s1` [C23] yielded an IC50 greater than 25 µM.
Compound `COc1ccc(NC(=O)Nc2nc3ccccc3s2)cc1` [C24] has an IC50 greater than 25 µM.
In the case of `Cc1ccc2nc(NC(=O)Nc3cccc(Cl)c3)sc2c1` [C26], the IC50 is reported as greater than 25 µM.
`Cc1cccc(NC(=O)Nc2nc3ccc(C)cc3s2)c1` [C27] gave an IC50 greater than 25 µM.
`CCOc1ccc2nc(NC(=O)Nc3cccc(C)c3)sc2c1` [C31] was tested, and the IC50 was greater than 25 µM.
Compound `CCOc1ccc2nc(NC(=O)Nc3ccc(C)cc3)sc2c1` [C32] has an IC50 greater than 25 µM.

Each compound was assayed on K562 (assay: XTT cell viability assay, K562 CML cells). Details: Homo sapiens, K562, 48 h, SD 10%, mean of three experiments.
Format: cell-based, human
Procedure: as §1
For `O=C(Nc1ccc(Cl)cc1)Nc1nc2ccccc2s1` [C23], the IC50 was 25 µM.
`COc1ccc(NC(=O)Nc2nc3ccccc3s2)cc1` [C24] showed an IC50 of 25 µM.
Compound `Cc1ccc2nc(NC(=O)Nc3cccc(Cl)c3)sc2c1` [C26] has an IC50 greater than 25 µM.
In the case of `Cc1cccc(NC(=O)Nc2nc3ccc(C)cc3s2)c1` [C27], the IC50 is reported as greater than 25 µM.
Work on `CCOc1ccc2nc(NC(=O)Nc3cccc(C)c3)sc2c1` [C31] yielded an IC50 of 25 µM.
Compound `CCOc1ccc2nc(NC(=O)Nc3ccc(C)cc3)sc2c1` [C32] has an IC50 greater than 25 µM.

The compounds below were run on A498 (assay: XTT cell viability assay, A498 RCC cells). Details: Homo sapiens, A498; XTT assay, 48 h; SD 10%; mean of three experiments; read-out: IC50 498 (Kidney RCC).
Format: cell-based, human
Procedure: as §1
With `O=C(Nc1ccc(Cl)cc1)Nc1nc2ccccc2s1` [C23] the IC50 was 25 µM.
Work on `COc1ccc(NC(=O)Nc2nc3ccccc3s2)cc1` [C24] yielded an IC50 greater than 25 µM.
Work on `Cc1ccc2nc(NC(=O)Nc3cccc(Cl)c3)sc2c1` [C26] yielded an IC50 greater than 25 µM.
With `Cc1cccc(NC(=O)Nc2nc3ccc(C)cc3s2)c1` [C27] the IC50 was greater than 25 µM.
Work on `CCOc1ccc2nc(NC(=O)Nc3cccc(C)c3)sc2c1` [C31] yielded an IC50 greater than 25 µM.
`CCOc1ccc2nc(NC(=O)Nc3ccc(C)cc3)sc2c1` [C32] was tested, and the IC50 was greater than 25 µM.

These compounds were tested on OCI-AML3 (assay: XTT cell viability assay, OCI-AML3 AML cells). Details: Homo sapiens, OCI-AML-3, 48 h, SD 10%, mean of three experiments, read-out: IC50 L3 (AML).
Format: cell-based, human
Procedure: as §1
In the case of `O=C(Nc1ccc(Cl)cc1)Nc1nc2ccccc2s1` [C23], the IC50 is reported as greater than 25 µM.
Compound `COc1ccc(NC(=O)Nc2nc3ccccc3s2)cc1` [C24] has an IC50 greater than 25 µM.
Compound `Cc1ccc2nc(NC(=O)Nc3cccc(Cl)c3)sc2c1` [C26] has an IC50 greater than 25 µM.
`Cc1cccc(NC(=O)Nc2nc3ccc(C)cc3s2)c1` [C27] showed an IC50 greater than 25 µM.
For `CCOc1ccc2nc(NC(=O)Nc3cccc(C)c3)sc2c1` [C31], the IC50 was greater than 25 µM.
`CCOc1ccc2nc(NC(=O)Nc3ccc(C)cc3)sc2c1` [C32] gave an IC50 greater than 25 µM.

The compounds below were run on SKM1 (assay: XTT cell viability assay, SKM1 MDS cells). Details: Homo sapiens, SKM-1, 48 h, SD 10%, mean of three experiments, read-out: IC50 SK (MDS).
Format: cell-based, human
Procedure: as §1
With `O=C(Nc1ccc(Cl)cc1)Nc1nc2ccccc2s1` [C23] the IC50 was greater than 25 µM.
With `COc1ccc(NC(=O)Nc2nc3ccccc3s2)cc1` [C24] the IC50 was greater than 25 µM.
`Cc1ccc2nc(NC(=O)Nc3cccc(Cl)c3)sc2c1` [C26] gave an IC50 greater than 25 µM.
With `Cc1cccc(NC(=O)Nc2nc3ccc(C)cc3s2)c1` [C27] the IC50 was greater than 25 µM.
In the case of `CCOc1ccc2nc(NC(=O)Nc3cccc(C)c3)sc2c1` [C31], the IC50 is reported as greater than 25 µM.
Work on `CCOc1ccc2nc(NC(=O)Nc3ccc(C)cc3)sc2c1` [C32] yielded an IC50 greater than 25 µM.

Each compound was assayed on CAL27 (assay: XTT cell viability assay, CAL27 HNSCC cells). Details: Homo sapiens, CAL-27; XTT assay, 48 h; SD 10%; mean of three experiments; read-out: IC50 27 (HNSCC).
Format: cell-based, human
Procedure: as §1
`O=C(Nc1ccc(Cl)cc1)Nc1nc2ccccc2s1` [C23] was tested, and the IC50 was greater than 25 µM.
With `COc1ccc(NC(=O)Nc2nc3ccccc3s2)cc1` [C24] the IC50 was greater than 25 µM.
Compound `Cc1ccc2nc(NC(=O)Nc3cccc(Cl)c3)sc2c1` [C26] has an IC50 greater than 25 µM.
For `Cc1cccc(NC(=O)Nc2nc3ccc(C)cc3s2)c1` [C27], the IC50 was greater than 25 µM.
With `CCOc1ccc2nc(NC(=O)Nc3cccc(C)c3)sc2c1` [C31] the IC50 was greater than 25 µM.
With `CCOc1ccc2nc(NC(=O)Nc3ccc(C)cc3)sc2c1` [C32] the IC50 was greater than 25 µM.

What follows are compounds tested on MDA-MD-231 (assay: XTT cell viability assay, breast cancer cells). Details: Homo sapiens, 48 h, SD 10%, mean of three experiments.
Format: cell-based, human
Procedure: as §1
`O=C(Nc1ccc(Cl)cc1)Nc1nc2ccccc2s1` [C23] was tested, and the IC50 was greater than 25 µM.
For `COc1ccc(NC(=O)Nc2nc3ccccc3s2)cc1` [C24], the IC50 was greater than 25 µM.
In the case of `Cc1ccc2nc(NC(=O)Nc3cccc(Cl)c3)sc2c1` [C26], the IC50 is reported as greater than 25 µM.
For `Cc1cccc(NC(=O)Nc2nc3ccc(C)cc3s2)c1` [C27], the IC50 was greater than 25 µM.
Compound `CCOc1ccc2nc(NC(=O)Nc3cccc(C)c3)sc2c1` [C31] has an IC50 greater than 25 µM.
Work on `CCOc1ccc2nc(NC(=O)Nc3ccc(C)cc3)sc2c1` [C32] yielded an IC50 greater than 25 µM.

Each compound was assayed on 786-O (assay: XTT cell viability assay, 786-O RCC cells). Details: Homo sapiens, 786-0; XTT assay, 48 h; SD 10%; mean of three experiments; read-out: IC50 786 (Kidney RCC).
Format: cell-based, human
Procedure: as §1
For `O=C(Nc1ccc(Cl)cc1)Nc1nc2ccccc2s1` [C23], the IC50 was greater than 25 µM.
`COc1ccc(NC(=O)Nc2nc3ccccc3s2)cc1` [C24] showed an IC50 greater than 25 µM.
Compound `Cc1ccc2nc(NC(=O)Nc3cccc(Cl)c3)sc2c1` [C26] has an IC50 greater than 25 µM.
Compound `Cc1cccc(NC(=O)Nc2nc3ccc(C)cc3s2)c1` [C27] has an IC50 greater than 25 µM.
In the case of `CCOc1ccc2nc(NC(=O)Nc3cccc(C)c3)sc2c1` [C31], the IC50 is reported as greater than 25 µM.
With `CCOc1ccc2nc(NC(=O)Nc3ccc(C)cc3)sc2c1` [C32] the IC50 was greater than 25 µM.

These compounds were tested on OCI-AML2 (assay: XTT cell viability assay, OCI-AML2 AML cells). Details: Homo sapiens, OCI-AML2, 48 h, SD 10%, mean of three experiments, read-out: IC50 L2 (AML).
Format: cell-based, human
Procedure: as §1
`O=C(Nc1ccc(Cl)cc1)Nc1nc2ccccc2s1` [C23] showed an IC50 greater than 25 µM.
In the case of `COc1ccc(NC(=O)Nc2nc3ccccc3s2)cc1` [C24], the IC50 is reported as greater than 25 µM.
With `Cc1ccc2nc(NC(=O)Nc3cccc(Cl)c3)sc2c1` [C26] the IC50 was greater than 25 µM.
`Cc1cccc(NC(=O)Nc2nc3ccc(C)cc3s2)c1` [C27] showed an IC50 greater than 25 µM.
Work on `CCOc1ccc2nc(NC(=O)Nc3cccc(C)c3)sc2c1` [C31] yielded an IC50 of 25 µM.
Compound `CCOc1ccc2nc(NC(=O)Nc3ccc(C)cc3)sc2c1` [C32] has an IC50 greater than 25 µM.
